The values below come from patent publication US10093670B2, “Azabenzimidazole derivative having AMPK-activating activity” (Shionogi & Co., Ltd., priority 2011, dated 2018).

SMILES strings stand for the structures.

One test has as its target T1, human AMPK α1β1γ1 enzyme (Homo sapiens, UniProt Q13131+Q9Y478).
T1 construct: purchased Carna Biosciences, Inc
Put plainly: Evaluation of AMPK activator, Test Example 1 (mobility-shift kinase assay, FL-Peptide 7). The class given is biochemical. The note with it: for EC150 (compound concentration showing 150% relative to the control (100%)): human AMPK α1β1γ1, 25° C., 2 hours, 0.2 mM ATP final; for Emax: human AMPK α1β1γ1, relative to control (100%), read-out: Emax (maximum rate of increase in activity within the measurement range). Here is the method: The obtained liquid was left to stand for 10 minutes.
The obtained liquid was allowed to react at 25° C. for 2 hours, and 10 μl of 20 mM EDTA was then added thereto to stop the reaction.
(§1) To detect phosphorylated fluorescent substrates, the reaction liquid was applied to a measuring device, LabChip EZ Reader II manufactured by Caliper Life Science, Inc., for detecting fluorescence by using differences in mobility due to differences in charge. The setting conditions for the device were pressure, −1.5 PSI; upstream voltage, −2250 V; downstream voltage, −400 V; post sample buffer sip time, 40 seconds; final delay, 120 seconds; and peak order, Product First.
(§2) A conversion rate was calculated from the peak heights of the resulting substrate and product. The conversion rate when not containing a compound was used as a control, and a concentration dependent curve was made by plotting the rate of increase in activity to the control at each concentration of a compound.

For a further test, the target named is T2, Human AMPK α2β2γ1 (Homo sapiens, UniProt O43741+P54646).
T2 construct: The full length cDNAs of human AMPK β2 (NM_005399.3) and human AMPK α2 (NM_006252.3) were inserted; the full length cDNA of human AMPK γ1 (NM_002733.3) had been inserted into pET28b(+); 6xHis (N); made in house; host or cells: Escherichia coli BL21 CodonPlus (DE3)-RIL (AMPK); BL21 Star (DE3) (CaMKKβ)
T2 sequence (P54646 whole entry): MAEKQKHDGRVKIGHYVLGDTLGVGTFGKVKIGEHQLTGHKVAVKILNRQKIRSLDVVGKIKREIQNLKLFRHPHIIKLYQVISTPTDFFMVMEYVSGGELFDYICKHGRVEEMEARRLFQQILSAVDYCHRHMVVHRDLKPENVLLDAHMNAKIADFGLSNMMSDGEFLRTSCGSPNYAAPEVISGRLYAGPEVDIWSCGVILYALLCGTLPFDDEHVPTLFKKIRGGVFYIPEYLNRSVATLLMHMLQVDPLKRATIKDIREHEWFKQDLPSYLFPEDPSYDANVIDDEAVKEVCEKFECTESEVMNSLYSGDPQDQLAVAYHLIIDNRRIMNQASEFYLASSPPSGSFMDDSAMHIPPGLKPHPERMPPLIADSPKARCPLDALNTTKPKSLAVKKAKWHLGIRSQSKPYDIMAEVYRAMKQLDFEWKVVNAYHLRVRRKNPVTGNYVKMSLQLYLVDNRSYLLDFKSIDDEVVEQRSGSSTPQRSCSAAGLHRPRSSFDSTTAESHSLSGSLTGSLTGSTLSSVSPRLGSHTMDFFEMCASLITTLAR
T2 sequence (O43741 whole entry): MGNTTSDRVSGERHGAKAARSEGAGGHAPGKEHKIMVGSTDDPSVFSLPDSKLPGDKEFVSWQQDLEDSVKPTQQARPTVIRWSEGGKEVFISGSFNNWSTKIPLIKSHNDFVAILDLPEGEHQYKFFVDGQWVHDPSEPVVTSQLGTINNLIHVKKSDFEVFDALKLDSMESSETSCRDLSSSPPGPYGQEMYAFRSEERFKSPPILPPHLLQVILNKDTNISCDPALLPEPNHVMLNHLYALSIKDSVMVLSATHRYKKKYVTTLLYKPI
T2 sequence (P54619 whole entry partner): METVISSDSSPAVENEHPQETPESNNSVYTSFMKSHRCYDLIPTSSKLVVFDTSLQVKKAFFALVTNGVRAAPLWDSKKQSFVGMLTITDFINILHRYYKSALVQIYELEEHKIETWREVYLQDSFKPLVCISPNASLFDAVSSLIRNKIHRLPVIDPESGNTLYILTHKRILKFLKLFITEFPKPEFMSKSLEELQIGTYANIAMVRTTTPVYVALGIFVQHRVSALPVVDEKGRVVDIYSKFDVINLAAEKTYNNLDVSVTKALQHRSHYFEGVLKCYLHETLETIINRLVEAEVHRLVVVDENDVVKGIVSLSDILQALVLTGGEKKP
The experiment in a line: Evaluation of AMPK activator, Test Example 2 (CaMKK2-phosphorylated enzyme, mobility-shift kinase assay). In kind it is biochemical. The note with it: for EC150 (compound concentration showing 150% relative to the control (100%)): human AMPK α2β2γ1 phosphorylated by CaMKK2, 25° C., 2 hours; for Emax: human AMPK α2β2γ1 phosphorylated by CaMKK2, relative to control (100%), read-out: Emax (maximum rate of increase in activity within the measurement range). Here is the method:
The full length cDNAs of human AMPK β2 (NM_005399.3) and human AMPK α2 (NM_006252.3) were inserted into the MCS1 and MCS2 of the pETDuet-1 vector to prepare a human AMPK β2 and human AMPK α2 (6× His tag at the 5′ terminus) expressing plasmid. The plasmid was contransfected with an expression plasmid, in which the full length cDNA of human AMPK γ1 (NM_002733.3) had been inserted into pET28b(+), into BL21 CodonPlus (DE3)-RIL to obtain an expression strain. The expression strain was cultured in TB medium, followed by induction with 0.5 mM IPTG, and cultured at 25° C. for 3 hours and then harvested. After ultrasonication, supernatant was collected and applied to Histrap FF column (GE) and RESOUECE Q column (GE) to prepare 12.5 mg of purified sample containing three types of subunit from 1.8 L of broth.
An expression vector, in which the full length cDNA of human CAMKK β (NM_172226.1) had been inserted into pGEX-6P-3, was transfected into BL21 Star (DE3). The expression strain was cultured in TB medium, followed by induction with 0.5 mM IPTG, and cultured at 25° C. for 3 hours and then harvested. After ultrasonication, supernatant was collected and applied to GSTrap FF column (GE) to prepare 14 mg of GST-fused CAMKK β from 720 ml of broth.
Evaluation Method of an Activator for AMP-activated Protein Kinase (AMPK) (Test Example 2)
Thus, phosphorylation treatment was carried out as pretreatment.
Human AMPK α2β2γ1 in an amount to give a conversion rate of approximately 10% by reaction for 2 hours, and CaMKK2 in an amount capable of sufficiently imparting activity to AMPK for one hour were mixed in a buffer solution consisting of a 50 mM HEPES-NaOH buffer solution (pH 7.0), 100 mM NaCl, 5 mM magnesium chloride, 0.1% bovine serum albumin, 0.2 mM sodium orthovanadate(V), 1 mM ethylene glycol-bis(2-aminoethyl ether)-N,N,N′,N′-tetraacetic acid (EGTA), 5 mM disodium β-glycerophosphate, 1 mM dithiothreitol and 0.2 mM ATP, and the obtained liquid was left to stand at 25° C. for 1 to 1.5 hours to sufficiently phosphorylate AMPK.
After that, to the enzyme liquid, which had been subjected to phosphorylation treatment, a compound dissolved in DMSO was added so as to have a 1% DMSO concentration. The obtained liquid was left to stand for 10 minutes.
To the liquid, a substrate solution consisting of a 50 mM HEPES-NaOH buffer solution (pH 7.0), 100 mM NaCl, 10 mM magnesium chloride, 0.1% bovine serum albumin, 0.2 mM sodium orthovanadate(V), 1 mM ethylene glycol-bis(2-aminoethyl ether)-N,N,N′,N′-tetraacetic acid (EGTA), 5 mM disodium β-glycerophosphate, 2 mM dithiothreitol, 0.4 mM ATP and 3 μM FL-Peptide 7 (manufactured by Caliper Life Sciences, Inc.) was added in equal amount (10 μl in total). The obtained liquid was allowed to react at 25° C. for 2 hours, and 10 μl of 20 mM EDTA was then added thereto to stop the reaction.
as §1, §2

T1 sequence (Q13131 10-559 limits assumed): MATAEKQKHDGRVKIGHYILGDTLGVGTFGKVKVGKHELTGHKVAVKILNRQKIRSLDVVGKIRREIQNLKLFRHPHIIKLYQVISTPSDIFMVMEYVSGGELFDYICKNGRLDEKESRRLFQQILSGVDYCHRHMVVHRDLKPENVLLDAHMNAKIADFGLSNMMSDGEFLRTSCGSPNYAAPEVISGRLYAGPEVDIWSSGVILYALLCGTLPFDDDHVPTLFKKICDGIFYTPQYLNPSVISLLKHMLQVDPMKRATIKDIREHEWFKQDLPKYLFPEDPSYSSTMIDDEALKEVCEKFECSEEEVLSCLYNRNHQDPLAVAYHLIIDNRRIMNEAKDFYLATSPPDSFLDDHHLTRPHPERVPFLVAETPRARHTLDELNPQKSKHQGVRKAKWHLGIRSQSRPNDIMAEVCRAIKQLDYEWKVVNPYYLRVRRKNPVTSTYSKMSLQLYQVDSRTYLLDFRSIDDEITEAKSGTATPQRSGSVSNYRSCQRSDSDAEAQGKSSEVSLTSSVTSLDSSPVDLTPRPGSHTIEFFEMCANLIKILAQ
T1 sequence (Q9Y478 whole entry): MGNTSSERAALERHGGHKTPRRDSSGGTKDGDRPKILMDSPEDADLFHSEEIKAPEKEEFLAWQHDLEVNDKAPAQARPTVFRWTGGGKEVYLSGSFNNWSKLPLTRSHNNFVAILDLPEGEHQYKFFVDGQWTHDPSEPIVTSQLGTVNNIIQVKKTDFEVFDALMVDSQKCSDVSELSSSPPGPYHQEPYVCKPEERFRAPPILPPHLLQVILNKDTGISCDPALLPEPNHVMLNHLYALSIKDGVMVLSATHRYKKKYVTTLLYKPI
T1 sequence (P54619 whole entry partner): as the sequence (P54619 whole entry partner) above

As to `CC(C)(C(=O)O)[C@]1(O)CC[C@@H](Oc2nc3nc(-c4ccc(N5CCCC5)cc4)c(Cl)cc3[nH]2)CC1` [Compound I-3-30], on human AMPK α1β1γ1 enzyme, the “EC150 (compound concentration showing 150% relative to the control (100%))” value is given as 0.49 nM and the maximum response (Emax) – broadly, the greatest response seen or fitted, relative to the assay's reference – came out at 345%. Moreover, at Human AMPK α2β2γ1, the “EC150 (compound concentration showing 150% relative to the control (100%))” value was 12 nM and the maximum response (Emax) turned out to be 271%.

Turning to `CC(C)(C(=O)O)C1CCC(Oc2nc3nc(-c4ccc(C5(CO)CC5)cc4)c(Cl)cc3[nH]2)CC1` (centres unmarked) [Compound I-3-37], at human AMPK α1β1γ1 enzyme, the “EC150 (compound concentration showing 150% relative to the control (100%))” value came out at 5.6 nM and the Emax is 257%. Further, at Human AMPK α2β2γ1, the “EC150 (compound concentration showing 150% relative to the control (100%))” value was 5 nM and the Emax was 237%.

Turning to `CC(C)(C(=O)O)[C@H]1CC[C@H](Oc2nc3nc(-c4c(F)cc(N5CCOCC5)cc4F)ccc3[nH]2)CC1` [Compound I-3-40], the “EC150 (compound concentration showing 150% relative to the control (100%))” value is on record as 23 nM at human AMPK α1β1γ1 enzyme and 69 nM on Human AMPK α2β2γ1. In addition, the results for the maximal response (Emax) at human AMPK α1β1γ1 enzyme and on Human AMPK α2β2γ1 were 244% and 228%, respectively.

As to `CN(C)C(=O)[C@]1(O)CC[C@@H](Oc2nc3nc(-c4ccc(C5=CCC(C(=O)O)CC5)cc4)c(Cl)cc3[nH]2)CC1` (some centres unmarked) [Compound I-3-54], the “EC150 (compound concentration showing 150% relative to the control (100%))” value on human AMPK α1β1γ1 enzyme worked out at 270 nM; at Human AMPK α2β2γ1 it was 2.2 nM. For the same compound, the Emax is 201% on human AMPK α1β1γ1 enzyme and 373% on Human AMPK α2β2γ1.

With `CC(=O)NC1CC=C(c2ccc(-c3nc4nc(O[C@H]5CC[C@H](C(C)(C)CO)CC5)[nH]c4cc3Cl)cc2)CC1` (some centres unmarked) [Compound I-3-86], at human AMPK α1β1γ1 enzyme, the “EC150 (compound concentration showing 150% relative to the control (100%))” value came out at 23 nM and the maximal response (Emax) came out at 277%. Besides, at Human AMPK α2β2γ1, the “EC150 (compound concentration showing 150% relative to the control (100%))” value stood at 11 nM and the maximal effect (Emax) came out at 259%.

As to `CC(C)(C(=O)O)[C@H]1CC[C@H](Oc2nc3nc(-c4ccc(C5=CCN(C(=O)CO)CC5)cc4)c(Cl)cc3[nH]2)CC1` [Compound I-3-90], the “EC150 (compound concentration showing 150% relative to the control (100%))” value was 17 nM on human AMPK α1β1γ1 enzyme and 21 nM on Human AMPK α2β2γ1. Also, the maximal response (Emax) is 320% at human AMPK α1β1γ1 enzyme and 274% on Human AMPK α2β2γ1.

`CC(C)(C(=O)O)[C@]1(F)CC[C@@H](Oc2nc3nc(-c4ccc(N5CCOCC5)cc4)c(Cl)cc3[nH]2)CC1` [Compound I-3-99]: the “EC150 (compound concentration showing 150% relative to the control (100%))” value is 3.7 nM at human AMPK α1β1γ1 enzyme and 15 nM on Human AMPK α2β2γ1. In addition, the maximum response (Emax) amounted to 310% at human AMPK α1β1γ1 enzyme and 261% on Human AMPK α2β2γ1.

For the compound `NC(=O)c1ccc(-c2ccc(-c3nc4nc(O[C@H]5CC[C@H](C(=O)O)CC5)[nH]c4cc3Cl)cc2)cc1` [Compound I-3-120], at human AMPK α1β1γ1 enzyme, the “EC150 (compound concentration showing 150% relative to the control (100%))” value was 28 nM and the maximum response (Emax) amounted to 216%. For the same compound, at Human AMPK α2β2γ1, the “EC150 (compound concentration showing 150% relative to the control (100%))” value is on record as 7 nM and the maximal response (Emax) worked out at 262%.
